This note sets out measurements from patent publication US20260137697A1, “THIAZOLO[5,4-D]PYRIMIDINE COMPOUNDS, COMPOSITIONS COMPRISING THEM AND USES THEREOF” (University de Montreal, priority 2022, published 2026).

Molecules are shown by their SMILES.

In one assay the target is T1, ARAF (Homo sapiens, UniProt P10398).
T1 construct: ARAF kinase reactions were rigorously the same with the exception that kinase concentration was raised to 3.75 nM (cat. No. 1768-0000-1; Reaction Biology)
T1 sequence (P10398 303-606 limits assumed): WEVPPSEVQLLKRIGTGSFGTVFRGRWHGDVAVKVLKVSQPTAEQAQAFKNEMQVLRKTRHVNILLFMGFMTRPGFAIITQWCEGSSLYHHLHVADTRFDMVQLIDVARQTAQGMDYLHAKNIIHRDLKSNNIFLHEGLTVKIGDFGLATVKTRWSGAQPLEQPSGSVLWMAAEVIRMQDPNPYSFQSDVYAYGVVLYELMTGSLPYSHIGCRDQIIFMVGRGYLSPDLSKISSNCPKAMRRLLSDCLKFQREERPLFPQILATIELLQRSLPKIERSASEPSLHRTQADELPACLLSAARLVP
Description: ARAF kinase activity assay (AlphaLISA p-MEK 1/2). It counts as biochemical. The following applies: Table A; 10 μM ATP, kinase-dead MEK1 substrate. The protocol:
Compound preparation: solid samples of each substance in 1dram vials were suspended in DMSO (Fisher Scientific) at a stock concentration of 20 mM. Stocks were kept at −20° C. and protected from light. If solubility of the compound at 20 mM appeared to be an issue, the initial concentration of the DMSO stock was changed to 10 mM or 5 mM.
In vitro enzymatic reactions were used for evaluating compounds intrinsic activity against BRAF, CRAF and ARAF. For BRAF and CRAF, 0.375 nM of purified GST-tagged kinases (cat. No. B4062-10UG and cat. No. R1656-10UG respectively from Millipore Sigma) were incubated with 75 nM of kinase-dead MEK1 substrate (cat. No. 40075; BPS Bioscience) in the presence of 10 μM of Ultrapure ATP (cat. No. V9102; Promega; part V915A) with and without the test compound in a buffer containing 50 mM HEPES pH 7.5, 10 mM MgCl2, 1 mM EDTA, 0.01% Brij-35 and 2 mM DTT. Separate reactions were performed with the MEK1 substrate and ATP as a blank control. ARAF kinase reactions were rigorously the same with the exception that kinase concentration was raised to 3.75 nM (cat. No. 1768-0000-1; Reaction Biology).
For compound treatment, 5 μL/well of test substance solution are placed in a 384-well proxyplate (Perkin Elmer) and mixed with 2× concentrated kinase reactions. The dilution series is selected so that nine concentrations cover a range from 100 nM to 0.01 nM. […] The final concentration of DMSO in the assay is set at 0.05%.
ARAF kinase reactions were carried out for a total of 2 hours at 30° C. and then stopped by addition of EDTA at a final concentration of 40 mM. Reactions were then detected using the AlphaLISA® SureFire® Ultra™ p-MEK 1/2 (Ser218/222) (PerkinElmer) kit. Reactions were performed with 5 μL of kinase reaction according to the manufacturer's specifications in 384-well proxyplates (Perkin Elmer) followed by overnight incubation of the AlphaLISA® reactions at room temperature in a humidified chamber. After completion of the detection reactions, the signals were recorded on a Synergy Neo2 plate reader (Biotek) equipped with AlphaLISA® filters. The effect of each compound dilution on the pMEK signal generated by ARAF reactions was expressed in % inhibition and calculated as follows. An internal 100% inhibition control (average of luminescence in kinase reactions comprising kinase dead MEK1 substrate alone) was included in each plate to measure of pMEK background and was subtracted from each data point. The average of DMSO (vehicle) controls (set as 0% inhibition) was also established and used to calculate % inhibition:
IC50 values were obtained by plotting the kinase inhibition values and fitting the dose-activity curves using a log(agonist) versus response—variable slope (four parameters) function using either GraphPadPrism (V7.0) or Dotmatics Screening Ultra platform. Standards included in the ARAF kinase assay were Belvarafenib (MedChem Express cat. No. HY-109080; CAS No. 1446113-23-0), LXH254 (MedChem Express cat. No. HY-112089; CAS No. 1800398-38-2) and BGB283 (cat. No. HY-18957; CAS No. 1446090-79-4).
For orientation: Bead proximity is the source of the signal in Alpha formats.

In another assay the target is T2, BRAF (Homo sapiens, UniProt P15056).
T2 construct: GST; purchased Millipore Sigma B4062-10UG
Description: BRAF kinase activity assay (ADP-Glo). It is filed as biochemical. Particulars: 10 μM ATP, kinase-dead MEK1 substrate. A digest of the protocol: (§1)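 ADP-Glo luminescence read after 2 h reactions at 30° C containing 0.375 nM GST-kinase, kinase-dead MEK1 (75 nM), ATP at 10 μM, pH 7.5 HEPES/MgCl2/DTT, 0.05% DMSO. Compounds dosed from 100 to 0.01 nM (nine points); IC50 from variable-slope fit of % inhibition.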

The target in a further assay is T3, CRAF (Homo sapiens, UniProt P04049).
T3 construct: fused on or other part: GST tag (N-terminal according to the vendor's product)
Description: CRAF kinase activity assay (ADP-Glo). It is filed as biochemical. Particulars: 10 μM ATP, kinase-dead MEK1 substrate. A digest of the protocol:
as §1

A further assay has as its system pERK, HCT116 cells. Description: Phospho-ERK inhibition, AlphaLISA p-ERK 1/2, HCT-116. It is filed as cell-based, human. Particulars: for IC50: HCT116 cells (KRAS G13D), 1 h treatment; for HCT116 pERK (Ymin %): lowest % inhibition value of the pERK IC50 curve, above −20% = no paradoxical induction. A digest of the protocol: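 Cells in RPMI-1640 with 5% FBS plated overnight, then treated 1 h with ten-point dilutions (10 μM to 0.33 nM, 0.5% DMSO). Lysate p-ERK1/2 (Thr202/Tyr204) read by AlphaLISA SureFire Ultra; % inhibition normalised to DMSO and 1 μM trametinib background, IC50 by four-parameter fit.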

T3 sequence (P04049 whole entry Y340E/Y341E, form open, the tested form may be a part): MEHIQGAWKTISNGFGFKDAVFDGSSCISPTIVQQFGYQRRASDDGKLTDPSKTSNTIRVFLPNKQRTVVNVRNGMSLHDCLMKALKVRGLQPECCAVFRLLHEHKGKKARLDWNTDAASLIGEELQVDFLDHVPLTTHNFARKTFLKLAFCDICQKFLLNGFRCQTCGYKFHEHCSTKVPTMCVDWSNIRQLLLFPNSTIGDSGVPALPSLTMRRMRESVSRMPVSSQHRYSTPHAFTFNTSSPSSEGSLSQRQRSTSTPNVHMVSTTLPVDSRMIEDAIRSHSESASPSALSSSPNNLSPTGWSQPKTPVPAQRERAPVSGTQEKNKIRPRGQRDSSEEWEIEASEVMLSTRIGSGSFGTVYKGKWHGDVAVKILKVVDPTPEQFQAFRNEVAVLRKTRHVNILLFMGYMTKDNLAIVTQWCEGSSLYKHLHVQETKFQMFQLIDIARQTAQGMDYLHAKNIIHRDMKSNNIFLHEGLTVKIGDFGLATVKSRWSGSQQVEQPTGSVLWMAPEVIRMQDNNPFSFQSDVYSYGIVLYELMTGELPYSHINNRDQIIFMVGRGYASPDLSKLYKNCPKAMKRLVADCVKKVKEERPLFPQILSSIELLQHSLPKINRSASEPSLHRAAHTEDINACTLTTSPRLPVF
T2 sequence (P15056 whole entry): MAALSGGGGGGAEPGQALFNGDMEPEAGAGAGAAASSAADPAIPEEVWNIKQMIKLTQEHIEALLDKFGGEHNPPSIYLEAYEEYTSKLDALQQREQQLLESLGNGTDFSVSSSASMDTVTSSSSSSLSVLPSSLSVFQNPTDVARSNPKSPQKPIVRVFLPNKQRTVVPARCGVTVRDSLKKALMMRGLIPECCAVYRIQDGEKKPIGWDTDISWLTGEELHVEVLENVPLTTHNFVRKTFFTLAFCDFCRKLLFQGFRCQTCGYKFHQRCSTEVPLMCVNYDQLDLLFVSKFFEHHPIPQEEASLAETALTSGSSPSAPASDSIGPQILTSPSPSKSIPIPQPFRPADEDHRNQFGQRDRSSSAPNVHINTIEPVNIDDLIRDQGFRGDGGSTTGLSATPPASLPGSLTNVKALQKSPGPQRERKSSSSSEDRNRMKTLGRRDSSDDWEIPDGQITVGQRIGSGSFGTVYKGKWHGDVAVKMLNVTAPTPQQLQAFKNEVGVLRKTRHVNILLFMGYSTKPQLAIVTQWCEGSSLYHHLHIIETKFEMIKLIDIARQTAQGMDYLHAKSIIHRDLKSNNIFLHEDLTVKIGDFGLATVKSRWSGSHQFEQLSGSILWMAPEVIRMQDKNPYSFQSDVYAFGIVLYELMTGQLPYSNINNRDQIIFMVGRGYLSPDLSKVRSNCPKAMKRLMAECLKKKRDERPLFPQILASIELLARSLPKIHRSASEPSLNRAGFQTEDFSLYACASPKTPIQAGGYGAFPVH

Broadly, the IC50 is the concentration at which inhibition is half-maximal. For the molecule `O=C1CCc2c(Oc3ccc4c(c3)[C@@H]3[C@H](O4)[C@H]3c3nc4ccc(C(F)(F)F)cc4[nH]3)ccnc2N1` [BGB283], the concentration for half-maximal inhibition (IC50) at ARAF is greater than 10 nM.

As for `CC1(N)CCN(c2cccc3c2ncn3-c2nc3c(Nc4c(F)ccc(NS(=O)(=O)c5cccc(Cl)c5Cl)c4F)ncnc3s2)CC1` [Example 157], the IC50 at BRAF (Table 3) is less than 1 nM; at CRAF (Table 3), less than 10 nM; in the assay with pERK, HCT116 cells (Table 3), less than 500 nM. Further, the “HCT116 pERK (Ymin %)” value in the assay with pERK, HCT116 cells (Table 3) is −14%.

Take `O=S1(=O)CCN(c2cccc3c2ncn3-c2nc3c(Nc4c(F)ccc(NS(=O)(=O)c5cccc(Cl)c5Cl)c4F)ncnc3s2)CC1` [Example 158]: the IC50 is less than 1 nM on BRAF (Table 3); less than 10 nM on CRAF (Table 3); less than 500 nM in the assay with pERK, HCT116 cells (Table 3). In the assay with pERK, HCT116 cells (Table 3), the “HCT116 pERK (Ymin %)” value is listed as 4%.

As to `O=S(=O)(Nc1cc(F)c(F)c(Nc2ncnc3sc(-n4cnc5ccccc54)nc23)c1F)c1cccc(Cl)c1Cl` [Example 159, N-[3-[[2-(benzimidazol-1-yl)thiazolo[5,4-d]pyrimidin-7-yl]amino]-2,4,5-trifluoro-phenyl]-2,3-dichloro-benzenesulfonamide], the half-maximal inhibitory concentration (IC50) at BRAF (Table 4) was 1 to 10 nM; at CRAF (Table 4) it was less than 10 nM; in the assay on pERK, HCT116 cells (Homo sapiens, HCT-116, Table 4), less than 500 nM.

As to `Cc1ccc(NC(=O)c2ccnc(C(F)(F)F)c2)cc1-c1cc(OCCO)nc(N2CCOCC2)c1` [LXH254], at ARAF, the 50% inhibitory concentration (IC50) was greater than 10 nM.
